In patent US12410171B2, “Tropomyosin receptor kinase (TRK) degradation compounds and methods of use” (Cullgen (Shanghai), Inc., priority 2020, dated 2025) one finds IC50 and percent degradation of TPM3-TRKA protein data, which are given here for 14 molecules.

Like-named read-outs stand apart in the source and are kept apart here. Bounds are passed on as bounds.

In assay [1] the test system is KM12 cells. Nature of the assay: KM12 cell viability (CellTiter-Glo). Conditions: Homo sapiens, 72 h; KM12 cell viability, CellTiter-Glo, three days treatment; read-out: IC50. Format: cell-based. The method in brief:
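Three-day exposure of KM12 cells (5000/well, RPMI 1640 with 10% FBS, 37 °C, 5% CO2) to compound dilution series, 3-fold over 8 or 11 points (top 1000 nM in the 8-point format) or 2-fold over 12. CellTiter-Glo readout, with IC50 fitted by nonlinear least-squares regression.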
Background: Cellular ATP, detected with luciferase, serves as a proxy for viable cell number.

In assay [2] the target is T1, TPM3-TRKA fusion protein (Homo sapiens, UniProt P04629).
T1 construct: The resulted chimeric proteins always retain the kinase domain of TRK proteins; TPM3 (fusion partner, N-terminal part of tropomyosin alpha-3, P06753); endogenous in cells; host or cells: KM12 colon cancer cells; the other entry of the earlier key: TPM3 (P06753, Tropomyosin alpha-3 chain)
T1 sequence (P04629 with tags, fused parts or gaps): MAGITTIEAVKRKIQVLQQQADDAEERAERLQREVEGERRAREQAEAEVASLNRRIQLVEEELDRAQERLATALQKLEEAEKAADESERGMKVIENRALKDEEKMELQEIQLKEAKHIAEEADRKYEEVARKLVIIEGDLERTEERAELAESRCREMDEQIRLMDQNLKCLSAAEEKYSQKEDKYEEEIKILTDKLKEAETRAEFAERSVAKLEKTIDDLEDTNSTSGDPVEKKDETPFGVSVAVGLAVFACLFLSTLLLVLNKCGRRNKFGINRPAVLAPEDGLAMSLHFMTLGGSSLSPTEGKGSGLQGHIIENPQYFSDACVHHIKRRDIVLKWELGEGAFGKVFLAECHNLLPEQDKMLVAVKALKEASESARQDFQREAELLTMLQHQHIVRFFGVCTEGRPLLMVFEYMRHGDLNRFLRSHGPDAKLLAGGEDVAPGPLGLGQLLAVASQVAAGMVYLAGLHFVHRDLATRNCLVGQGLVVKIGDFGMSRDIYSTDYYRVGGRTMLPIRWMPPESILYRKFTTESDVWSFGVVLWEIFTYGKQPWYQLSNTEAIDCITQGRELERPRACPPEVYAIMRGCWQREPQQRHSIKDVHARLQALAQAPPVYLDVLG
Nature of the assay: TPM3-TRKA fusion protein levels in KM12 cells (Western blot). The settings on record: read-out: Degradation (at 10 nM). Format: cell-based. The method in brief:
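TPM3-TRKA levels were assessed by Western blot with chemiluminescent detection and band densitometry, after SDS-PAGE of BCA-normalized RIPA lysates. Before lysis, KM12 cells received DMSO, compounds or matched control compounds at concentrations including 0.1, 1, 10 and 100 nM and 0.4–30 nM. Exposures lasted 4 h, 8–16 h or 16 h.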
(In general: A western blot detects proteins with antibodies after separation by electrophoresis.)

The mark [3] stands for this setting: 16 h, TPM3-TRKA degradation in KM12 cells at 10 nM compound, category of percentage degradation.

What is called IC50 is the midpoint of a concentration-inhibition curve. `O=C1CCC(N2C(=O)c3ccc(N4CCOC(CN5CCN(c6ccc(C(=O)Nc7n[nH]c8ccc(Cc9cc(F)cc(F)c9)cc78)c(NC7CCOCC7)c6)CC5)C4)cc3C2=O)C(=O)N1` (stereo not shown) [TR-282, N-(5-(3,5-difluorobenzyl)-1H-indazol-3-yl)-4-(4-((4-(2-(2,6-dioxopiperidin-3-yl)-1,3-dioxoisoindolin-5-yl)morpholin-2-yl)methyl)piperazin-1-yl)-2-((tetrahydro-2H-pyran-4-yl)amino)benzamide]: the half-inhibitory concentration (IC50) in assay [1] came out at 6.3 nM. Also, the percent degradation of TPM3-TRKA protein at 0.01 µM in assay [2] (setting [3]) is above 80%.
On the same counts, the results for `O=C1CCC(N2C(=O)c3ccc(C#CCN4CCN(c5ccc(C(=O)Nc6n[nH]c7ccc(Cc8cc(F)cc(F)c8)cc67)c(NC6CCOCC6)c5)CC4)cc3C2=O)C(=O)N1` (stereo not shown) [TR-283, N-(5-(3,5-Difluorobenzyl)-1H-indazol-3-yl)-4-(4-(3-(2-(2,6-dioxopiperidin-3-yl)-1,3-dioxoisoindolin-5-yl)prop-2-yn-1-yl)piperazin-1-yl)-2-((tetrahydro-28-pyran-4-yl)amino)benzamide] are 54 nM and above 80%.
On the same counts, the results for `O=C1CCC(N2C(=O)c3ccc(N4CCC(N5CCN(c6ccc(C(=O)Nc7n[nH]c8ccc(Cc9cc(F)cc(F)c9)cc78)c(NC7CCOCC7)c6)CC5)C4)cc3C2=O)C(=O)N1` (stereo not shown) [TR-284, N-(5-(3,5-difluorobenzyl)-1H-indazol-3-yl)-4-(4-(1-(2-(2,6-dioxopiperidin-3-yl)-1,3-dioxoisoindolin-5-yl)pyrrolidin-3-yl)piperazin-1-yl)-2-((tetrahydro-2H-pyran-4-yl)amino)benzamide] are 5 nM and above 80%.
The corresponding values for `O=C1CCC(N2C(=O)c3ccc(CN4CCC(N5CCN(c6ccc(C(=O)Nc7n[nH]c8ccc(Cc9cc(F)cc(F)c9)cc78)c(NC7CCOCC7)c6)CC5)C4)cc3C2=O)C(=O)N1` (stereo not shown) [TR-285, N-(5-(3,5-difluorobenzyl)-1H-indazol-3-yl)-4-(4-(1-((2-(2,6-dioxopiperidin-3-yl)-1,3-dioxoisoindolin-5-yl)methyl)pyrrolidin-3-yl)piperazin-1-yl)-2-((tetrahydro-2H-pyran-4-yl)amino)benzamide] are 9.7 nM and above 80%.
Regarding `O=C1CCC(N2C(=O)c3ccc(N4CCOC(CN5CCN(c6cccc(-c7cnc8ccc(N9CCC[C@@H]9c9cccc(F)c9)nn78)n6)CC5)C4)cc3C2=O)C(=O)N1` (stereo partly drawn) [TR-286, 2-(2,6-dioxopiperidin-3-yl)-5-(2-((4-(6-(6-((R)-2-(3-fluorophenyl)pyrrolidin-1-yl)imidazo[1,2-b]pyridazin-3-yl)pyridin-2-yl)piperazin-1-yl)methyl)morpholino) isoindoline-1,3-dione], the IC50 in assay [1] is 7.8 nM. Also, the percent degradation of TPM3-TRKA protein at 0.01 µM in assay [2] (setting [3]) was above 80%.
On the same counts, the results for `O=C1CCC(N2C(=O)c3ccc(N4CC(OC5CCN(c6cccc(-c7cnc8ccc(N9CCC[C@@H]9c9cccc(F)c9)nn78)n6)CC5)C4)cc3C2=O)C(=O)N1` (stereo partly drawn) [TR-287, 2-(2,6-dioxopiperidin-3-yl)-5-(3-((1-(6-(6-((R)-2˜ (3-fluorophenyl)pyrrolidin-1-yl)imidazo[1,2-b]pyridazin-3-yl)pyridin-2-yl)piperidin-4-yl)oxy)azetidin-1-yl)isoindoline-1,3-dione] are 19.3 nM and above 80%.
On to `O=C1CCC(N2C(=O)c3ccc(N4CC(NC5CCN(c6cccc(-c7cnc8ccc(N9CCC[C@@H]9c9cccc(F)c9)nn78)n6)CC5)C4)cc3C2=O)C(=O)N1` (stereo partly drawn) [TR-288, 2-(2,6-dioxopiperidin-3-yl)-5-(3-((1-(6-(6-((R)-2-(3-fluorophenyl)pyrrolidin-1-yl)imidazo[1,2-b]pyridazin-3-yl)pyridin-2-yl)piperidin-4-yl)amino)azetidin-1-yl)isoindoline-1,3-dione], for which the IC50 in assay [1] worked out at 9.2 nM. Further, the percent degradation of TPM3-TRKA protein at 0.01 µM in assay [2] (KM12, 16 h) is above 80%.
As to `O=C1CCC(N2C(=O)c3ccc(NC4CCC(N5CCN(c6ccc(C(=O)Nc7n[nH]c8ccc(Cc9cc(F)cc(F)c9)cc78)c(NC7CCOCC7)c6)CC5)CC4)cc3C2=O)C(=O)N1` (stereo not shown) [TR-289, N-(5-(3,5-Difluorobenzyl)-1H-indazol-3-yl)-4-(4-(4-((2-(2,6-dioxopiperidin-3-yl)-1,3-dioxoisoindolin-5-yl)amino)cyclohexyl)piperazin-1-yl)-2-((tetrahydro-2H-pyran-4-yl)amino)benzamide], the IC50 in assay [1] is 3.8 nM. The percent degradation of TPM3-TRKA protein at 0.01 µM in assay [2] (setting [3]) was above 80%.
The corresponding values for `O=C1CCC(N2C(=O)c3ccc(N4CCC5(CC(N6CCN(c7ccc(C(=O)Nc8n[nH]c9ccc(Cc%10cc(F)cc(F)c%10)cc89)c(NC8CCOCC8)c7)CC6)C5)C4)cc3C2=O)C(=O)N1` (stereo not shown) [TR-290, N-(5-(3,5-difluorobenzyl)-1H-indazol-3-yl)-4-(4-(6-(2-(2,6-dioxopiperidin-3-yl)-1,3-dioxoisoindolin-5-yl)-6-azaspiro[3.4]octan-2-yl)piperazin-1-yl)-2-((tetrahydro-2H-pyran-4-yl)amino)benzamide] are 11.2 nM and above 80%.
Turning to `O=C1CCC(N2C(=O)c3ccc(C4CN(CCN5CCN(c6cccc(-c7cnc8ccc(N9CCC[C@@H]9c9cccc(F)c9)nn78)n6)CC5)C4)cc3C2=O)C(=O)N1` (stereo partly drawn) [TR-292, 2-(2,6-dioxopiperidin-3-yl)-5-(1-(2-(4-(6-(6-((R)-2-(3-fluorophenyl)pyrrolidin-1-yl)imidazo[1,2-b]pyridazin-3-yl)pyridin-2-yl)piperazin-1-yl)ethyl)azetidin-3-yl)isoindoline-1,3-dione], the IC50 in assay [1] amounted to 8.2 nM. Moreover, the percent degradation of TPM3-TRKA protein at 0.01 µM in assay [2] (setting [3]) was above 80%.
The corresponding values for `O=C1CCC(N2C(=O)c3ccc(C4CN(CC5CCN(c6cccc(-c7cnc8ccc(N9CCC[C@@H]9c9cccc(F)c9)nn78)n6)CC5)C4)cc3C2=O)C(=O)N1` (stereo partly drawn) [TR-293, 2-(2,6-dioxopiperidin-3-yl)-5-(1-((1-(6-(6-((R)-2-(3-fluorophenyl)pyrrolidin-1-yl)imidazo[1,2-b]pyridazin-3-yl)pyridin-2-yl)piperidin-4-yl)methyl)azetidin-3-yl)isoindoline-1,3-dione] are 9.5 nM and above 80%.
For `O=C1CCC(N2C(=O)c3cccc(CN4CC(CN5CCN(c6cccc(-c7cnc8ccc(N9CCC[C@@H]9c9cccc(F)c9)nn78)n6)CC5)C4)c3C2=O)C(=O)N1` (stereo partly drawn) [TR-294, 2-(2,6-Dioxopiperidin-3-yl)-4-((3-((4-(6-(6-((R)-2-(3-fluorophenyl)pyrrolidin-1-yl)imidazo[1,2-b]pyridazin-3-yl)pyridin-2-yl)piperazin-1-yl)methyl)azetidin-1-yl)methyl)isoindoline-1,3-dione], the IC50 in assay [1] is 12.5 nM. The percent degradation of TPM3-TRKA protein at 0.01 µM in assay [2] (setting [3]) is above 80%.
The corresponding values for `Cc1nc2cccc(N3CC(CN4CCN(c5cccc(-c6cnc7ccc(N8CCC[C@@H]8c8cccc(F)c8)nn67)n5)CC4)C3)c2c(=O)n1C1CCC(=O)NC1=O` (stereo partly shown) [TR-295] are 30 nM and 50 to 80%.
On the same counts, the results for `O=C1CCC(n2nnc3cccc(N4CC(CN5CCN(c6cccc(-c7cnc8ccc(N9CCC[C@@H]9c9cccc(F)c9)nn78)n6)CC5)C4)c3c2=O)C(=O)N1` (stereo partly shown) [TR-296] are 22 nM and 50 to 80%.
